Earlier results as cited in US12156855B2, “Infusion dosage form of norepinephrine” (Sun Pharmaceutical Industries Limited, priority 2019, dated 2024).

O=Cc1ccc(O)c(O)c1 [3,4 dihydroxybenzaldehyde, 3,4-dihydroxybenzaldehyde]
reported toxicity (heart, ZHANG Cui-ying et al): toxic to the heart

Oc1cc2c(cc1O)C(O)CNC2 (centres unmarked) [impurity of Formula I, 1,2,3,4-tetrahydroisoquinoline-4,6,7-triol]
reported pharmacological action (Hans Aaron Bates, J. Org. Chem. 1983): acts as false neurotransmitter
